In publication PMC7385629 (Scientific Reports, 2020):

Columns and labels:
CTAT = target: T1, CTAT (Leishmania donovani, UniProt A0A3Q8INT3); assay: UV absorption scan […]-500 nm, aldimine bond formation; assay type: binding; conditions: 4 mM PLP; 0.5 and 1 mg/ml protein; 25 °C; 30 min; covalent, internal aldimine at K286
T1 construct: gene LdCL_360030600; C-terminal 60 residues (180 bp) deleted; printed 389 aa (1,167 bp; end may be 388); two His-tags (N and C) from pET28a(+), about 45 kDa on gel, E. coli BL21, Ni-NTA
T1 sequence (A0A3Q8INT3 entry or part of it): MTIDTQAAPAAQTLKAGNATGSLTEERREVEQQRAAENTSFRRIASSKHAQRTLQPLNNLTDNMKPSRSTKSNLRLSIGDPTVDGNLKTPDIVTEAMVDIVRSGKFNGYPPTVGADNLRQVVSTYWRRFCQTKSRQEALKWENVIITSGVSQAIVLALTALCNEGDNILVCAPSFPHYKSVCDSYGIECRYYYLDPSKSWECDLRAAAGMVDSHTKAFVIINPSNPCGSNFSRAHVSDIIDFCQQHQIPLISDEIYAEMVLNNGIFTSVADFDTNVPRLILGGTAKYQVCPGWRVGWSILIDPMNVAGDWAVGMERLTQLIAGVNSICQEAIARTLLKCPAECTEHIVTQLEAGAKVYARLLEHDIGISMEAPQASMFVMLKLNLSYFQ

NTAT [1] = target: T2, NTAT (Leishmania donovani, UniProt A0A3Q8INT3); assay: as above; assay type: binding; parameters: gene LdCL_360030600; N-terminal 60 residues (180 bp) deleted, starts T61, runs to native C-terminus; His-tag from pET28a(+), E. coli BL21, Ni-NTA; parent gene 1,347 bp; conditions: 4 mM PLP; 0.5 and 1 mg/ml protein; 25 °C; 30 min; covalent, internal aldimine at K286
T2 sequence (A0A3Q8INT3 entry or part of it): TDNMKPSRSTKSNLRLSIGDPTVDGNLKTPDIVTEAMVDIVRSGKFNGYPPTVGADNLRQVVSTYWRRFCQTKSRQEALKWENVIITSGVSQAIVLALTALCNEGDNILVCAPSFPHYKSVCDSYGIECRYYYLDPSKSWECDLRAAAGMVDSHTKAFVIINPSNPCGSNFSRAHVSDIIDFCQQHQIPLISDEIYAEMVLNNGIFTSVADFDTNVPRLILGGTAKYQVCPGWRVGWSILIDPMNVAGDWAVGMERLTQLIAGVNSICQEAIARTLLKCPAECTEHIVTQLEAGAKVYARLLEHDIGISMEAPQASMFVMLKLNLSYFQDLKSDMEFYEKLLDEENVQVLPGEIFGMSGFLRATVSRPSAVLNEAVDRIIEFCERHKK

NTAT [2] = target: T2, NTAT; parameters: gene LdCL_360030600; conditions: co-substrate sodium pyruvate 100 mM; 30 µM PLP; pH 8; 37 °C; tyrosine 0-7 mM; apparent

Cc1ncc(COP(=O)(O)O)c(C=O)c1O [PLP]
UV absorption scan 300-500 nm, aldimine bond formation (CTAT): In CTAT, the PLP binding was higher than NTAT | UV absorption scan 300-500 nm, aldimine bond formation (NTAT [1]): The increase in the concentration of NTAT or CTAT bound more PLP and formed aldimine bonds

N[C@@H](Cc1ccc(O)cc1)C(=O)O [tyrosine]
Km (NTAT [2]): 3.47 ± 0.796 mM
